Our source for the IC50 values is article PMC6850446, “In vivo inactivation of glycosidases by conduritol B epoxide and cyclophellitol as revealed by activity‐based protein profiling” (The Febs Journal, 2019).

pIC50: −log10 of the molar value. Read-outs that look alike come from different tables or passages of the source.

Experiment [1] concerns T1, GANAB (zebrafish larvae).
T1 construct: endogenous enzyme in larvae, measured in larval lysate; paralogues not distinguished
Nature of the experiment: live larvae exposed, residual activity in lysate with 4MU-alpha-D-glucopyranoside. More on the design: species or system Danio rerio. The note with it: covalent; in vivo: concentration in egg water, 5 days at 28.5 °C; assay pH 7.0; read-out: CBE / Enz. assay. The source says:
live larvae exposed, residual activity in lysate with 4MU-alpha-D-glucopyranoside on GANAB (zebrafish larvae)

Experiment [2] concerns the target T2, GUSB (zebrafish larvae) (Danio rerio, UniProt F1QGS9).
T2 construct: endogenous enzyme in larvae, measured in larval lysate
T2 sequence (F1QGS9 26-644): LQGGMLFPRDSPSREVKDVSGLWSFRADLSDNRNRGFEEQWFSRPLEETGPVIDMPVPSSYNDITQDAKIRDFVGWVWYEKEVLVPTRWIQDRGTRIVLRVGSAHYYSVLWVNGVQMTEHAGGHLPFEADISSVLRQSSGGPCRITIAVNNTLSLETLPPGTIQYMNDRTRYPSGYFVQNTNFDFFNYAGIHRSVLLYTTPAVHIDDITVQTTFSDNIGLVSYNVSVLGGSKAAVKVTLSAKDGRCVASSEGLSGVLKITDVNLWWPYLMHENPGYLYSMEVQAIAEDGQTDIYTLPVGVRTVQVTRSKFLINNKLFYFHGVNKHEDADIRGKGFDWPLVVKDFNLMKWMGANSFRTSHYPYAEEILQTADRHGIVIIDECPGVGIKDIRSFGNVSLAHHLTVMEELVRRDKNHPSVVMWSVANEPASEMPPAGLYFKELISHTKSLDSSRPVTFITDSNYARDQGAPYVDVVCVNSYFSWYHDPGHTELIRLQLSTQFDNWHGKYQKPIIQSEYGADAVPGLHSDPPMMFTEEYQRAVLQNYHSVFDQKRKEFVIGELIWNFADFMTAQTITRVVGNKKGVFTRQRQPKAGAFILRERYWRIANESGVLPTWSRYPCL
The experiment in a line: live larvae exposed, residual activity in lysate with 4MU-beta-D-glucuronide. The settings on record: covalent; in vivo: concentration in egg water, 5 days at 28.5 °C; assay pH 5.0; read-out: CBE / Enz. assay. The source says:
live larvae exposed, residual activity in lysate with 4MU-beta-D-glucuronide on GUSB (zebrafish larvae)

Experiment [3] addresses T3, GAA (zebrafish larvae) (Danio rerio, UniProt A0A8M1QKP5).
T3 construct: endogenous enzyme in larvae, measured in larval lysate; paralogues not distinguished
T3 sequence (A0A8M1QKP5 31-918): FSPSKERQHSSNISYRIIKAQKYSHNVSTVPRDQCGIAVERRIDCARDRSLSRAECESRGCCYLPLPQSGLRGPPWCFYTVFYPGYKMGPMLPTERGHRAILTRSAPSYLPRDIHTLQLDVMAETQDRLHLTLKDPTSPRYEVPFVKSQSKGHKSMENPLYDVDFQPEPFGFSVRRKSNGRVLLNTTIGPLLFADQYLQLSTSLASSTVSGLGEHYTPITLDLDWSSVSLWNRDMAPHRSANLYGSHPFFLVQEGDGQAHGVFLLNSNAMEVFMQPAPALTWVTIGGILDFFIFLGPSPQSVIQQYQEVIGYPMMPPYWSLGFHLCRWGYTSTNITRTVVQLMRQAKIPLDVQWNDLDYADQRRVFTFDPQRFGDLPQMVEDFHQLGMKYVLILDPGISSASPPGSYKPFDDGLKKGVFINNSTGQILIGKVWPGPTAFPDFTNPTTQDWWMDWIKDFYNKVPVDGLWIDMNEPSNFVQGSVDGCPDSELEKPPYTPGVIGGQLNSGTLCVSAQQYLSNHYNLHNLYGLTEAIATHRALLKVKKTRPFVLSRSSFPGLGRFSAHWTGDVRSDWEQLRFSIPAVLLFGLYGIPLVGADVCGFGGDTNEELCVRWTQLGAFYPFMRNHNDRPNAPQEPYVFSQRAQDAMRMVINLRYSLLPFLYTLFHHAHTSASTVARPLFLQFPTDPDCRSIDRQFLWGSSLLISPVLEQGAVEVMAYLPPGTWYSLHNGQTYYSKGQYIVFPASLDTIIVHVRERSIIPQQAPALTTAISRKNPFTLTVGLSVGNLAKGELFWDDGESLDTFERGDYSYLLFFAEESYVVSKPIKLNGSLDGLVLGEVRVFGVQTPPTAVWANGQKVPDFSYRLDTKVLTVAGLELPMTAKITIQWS
The experiment in a line: live larvae exposed, residual activity in lysate with 4MU-alpha-D-glucopyranoside. The settings on record: in vivo: concentration in egg water, 5 days at 28.5 °C, assay pH 4.0. The source says:
live larvae exposed, residual activity in lysate with 4MU-alpha-D-glucopyranoside on GAA (zebrafish larvae)

`OC1C(O)C(O)C2OC2C1O` (stereo not shown) [compound 1, conduritol B epoxide]: the pIC50 was 2.34 in experiment [1]; 2.20 in experiment [2]; 2.30 in experiment [3] (covalent, read-out: CBE / Enz. assay).
As to `OC[C@@H]1[C@@H](O)[C@H](O)[C@@H](O)[C@@H]2O[C@H]12` [compound 2, cyclophellitol], in experiment [3] (read-out: CP / Enz. assay), the pIC50 was less than 4.00.
